Test [1] has as its target T1, SNORF72 (Homo sapiens, UniProt Q9GZQ4, A395T).
T1 construct: expressed in transfected cells; host or cells: COS-7 (transient, DEAE-dextran)
As to the kind of experiment: Saturation binding of radioligands to SNORF72-transfected COS-7 membranes. The following applies: two values n=2. How it is done: COS-7 cells were transiently transfected with SNORF72 and membranes were prepared as described in Materials and Methods. […] Results presented are representative of 2 experiments performed in duplicate.
(§1) Cell membranes expressing the receptor protein of this invention are useful for certain types of assays including but not restricted to ligand binding assays, GTP-γ-S binding assays, and others. The specifics of preparing such cell membranes may in some cases be determined by the nature of the ensuing assay but typically involve harvesting whole cells and disrupting the cell pellet by sonication in ice cold buffer (e.g. 20 mM Tris HCl, mM EDTA, pH 7.4 at 4° C.). The resulting crude cell lysate is cleared of cell debris by low speed centrifugation at 200×g for 5 min at 4° C. […] Protein concentrations are determined by the method of Bradford (1976) using bovine serum albumin as a standard. […]
(§2) Radioligand binding assays were performed by diluting membranes prepared from cells expressing the receptor in 50 mM Tris buffer (pH=7.4 at 0° C.) containing 0.1% bovine serum albumin (Sigma), aprotinin (0.005 mg/ml, Boehringer Mannheim) and bestatin (0.1 mM, Sigma) as protease inhibitors. […] After addition of Ready Safe (Beckman) scintillation fluid, bound radioactivity was quantitated using a Trilux (Wallac) scintillation counter (approximately 40% counting efficiency of bound counts). […]

The target of test [2] is T2, SNORF62 (Homo sapiens, UniProt Q9HB89).
T2 sequence (Q9HB89 1-426): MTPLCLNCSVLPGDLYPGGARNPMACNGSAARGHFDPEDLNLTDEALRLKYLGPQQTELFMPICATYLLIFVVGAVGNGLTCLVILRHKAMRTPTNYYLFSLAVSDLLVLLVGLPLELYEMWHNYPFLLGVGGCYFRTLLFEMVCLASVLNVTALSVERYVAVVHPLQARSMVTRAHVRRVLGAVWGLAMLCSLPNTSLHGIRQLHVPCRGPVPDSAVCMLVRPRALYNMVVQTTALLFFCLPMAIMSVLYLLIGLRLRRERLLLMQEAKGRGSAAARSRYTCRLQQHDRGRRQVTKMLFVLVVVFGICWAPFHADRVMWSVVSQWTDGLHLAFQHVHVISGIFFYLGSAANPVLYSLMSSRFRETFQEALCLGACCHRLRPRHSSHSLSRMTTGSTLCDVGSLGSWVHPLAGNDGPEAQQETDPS
As to the kind of experiment: Saturation binding of radioligands to SNORF62-transfected COS-7 membranes. On the set-up: The SNORF62 cDNA codes for a protein of 426 amino acids; expressed in transfected cells; host or cells: COS-7 (transient, DEAE-dextran). Conditions: two values n=2. How it is done:
COS-7 cells were transiently transfected with SNORF62 and membranes were prepared as described in Materials and Methods. […] Results are representative of 2 experiments performed in duplicate.
as §1, §2

For test [3], the system named is isolated rat uterus preparations. The following applies: read-out: EC50 concentration for contraction; cited from earlier work.
Another test concerns the target T3, rat SNORF72 (Rattus norvegicus, UniProt Q9ESQ4).
T3 construct: corresponding to a predicted protein of 395 amino acids; expressed in transfected cells; host or cells: COS-7 (transient)
As to the kind of experiment: Intracellular Ca2+ release (FLIPR) in rat SNORF72-transfected COS-7 cells. It counts as cell-based. The following applies: FIG. 22 at 100 nM. How it is done:
A typical protocol for the DEAE-dextran method as applied to COS-7 and HEK293 cells is described as follows. Cells to be used for transfection are split 24 hours prior to the transfection to provide flasks which are 70–80% confluent at the time of transfection. Briefly, 8 μg of receptor DNA plus 8 μg of any additional DNA needed (e.g. Gα protein expression vector, reporter construct, antibiotic resistance marker, mock vector, etc.) are added to 9 ml of complete DMEM plus DEAE-dextran mixture (10 mg/ml in PBS). Cells plated into a T225 flask (sub-confluent) are washed once with PBS and the DNA mixture is added to each flask. The cells are allowed to incubate for 30 minutes at 37° C., 5% CO2. Following the incubation, 36 ml of complete DMEM with 80 μM chloroquine is added to each flask and allowed to incubate an additional 3 hours. […]
In another method, the measurement of intracellular Ca^2+ can also be performed on a 96-well (or higher) format and with alternative Ca^2+-sensitive indicators, preferred examples of these are: aequorin, Fluo-3, Fluo-4, Fluo-5, Calcium Green-1, Oregon Green, and 488 BAPTA. After activation of the receptors with agonist ligands the emission elicited by the change of intracellular Ca^2+ concentration can be measured by a luminometer, or a fluorescence imager; a preferred example of this is the fluorescence imager plate reader (FLIPR™, Molecular Devices). […]

Test [4] deals with T2, SNORF62. Put plainly: Intracellular Ca2+ release (FLIPR) in SNORF62-transfected COS-7 cells. In kind it is cell-based. Details: The SNORF62 cDNA codes for a protein of 426 amino acids; expressed in transfected cells; host or cells: COS-7 (transient, DEAE-dextran).
The target in test [5] is T1, SNORF72. Put plainly: Displacement of [125I]rat NMU-23 binding in SNORF72-transfected COS-7 membranes. Conditions: SNORF72 membranes, displacement of [125I]rat NMU-23; read-out: average pKi (converted). How it is done: (§3) The specifics of preparing such cell membranes may in some cases be determined by the nature of the ensuing assay but typically involve harvesting whole cells and disrupting the cell pellet by sonication in ice cold buffer (e.g. 20 mM Tris HCl, mM EDTA, pH 7.4 at 4° C.). The resulting crude cell lysate is cleared of cell debris by low speed centrifugation at 200×g for 5 min at 4° C. The cleared supernatant is then centrifuged at 40,000×g for 20 min at 4° C., and the resulting membrane pellet is washed by suspending in ice cold buffer and repeating the high speed centrifugation step. The final washed membrane pellet is resuspended in assay buffer. Protein concentrations are determined by the method of Bradford (1976) using bovine serum albumin as a standard. The membranes may be used immediately or frozen for later use.
(§4) Radioligand binding assays were performed by diluting membranes prepared from cells expressing the receptor in 50 mM Tris buffer (pH=7.4 at 0° C.) containing 0.1% bovine serum albumin (Sigma), aprotinin (0.005 mg/ml, Boehringer Mannheim) and bestatin (0.1 mM, Sigma) as protease inhibitors. The final protein concentration in the assay was 12–40 μg/ml. […] The bound ligand was separated from free by filtration through GF/B filters presoaked in 0.5% polyethyleneimine (PEI), using a Tomtec (Wallac) vacuum filtration device. After addition of Ready Safe (Beckman) scintillation fluid, bound radioactivity was quantitated using a Trilux (Wallac) scintillation counter (approximately 40% counting efficiency of bound counts). Data was fit to non-linear curves using GraphPad Prism.
(§5) In this manner, agonist or antagonist compounds that bind to the receptor may be identified as they inhibit the binding of the labeled ligand to the membrane protein of cells expressing the said receptor. Non-specific binding was defined as the amount of radioactivity remaining after incubation of membrane protein in the presence of 100 nM of the unlabeled peptide corresponding to the radioligand used. In equilibrium saturation binding assays membrane preparations or intact cells transfected with the receptor are incubated in the presence of increasing concentrations of the labeled compound to determine the binding affinity of the labeled ligand.
On the technique in general: In a radioligand displacement assay an active substance lowers the binding of a labelled ligand.

Test [6] addresses T2, SNORF62. As to the kind of experiment: Inositol phosphate (IP) release in SNORF62-transfected COS-7 cells. It counts as cell-based. On the set-up: The SNORF62 cDNA codes for a protein of 426 amino acids; expressed in transfected cells; host or cells: COS-7 (transient, DEAE-dextran).
Description: Human SNORF62 receptor-mediated activation and human SNORF72 receptor-mediated activation of the inositol phosphate (IP) second messenger pathways were assessed by radiometric measurement of IP products.
For example, in a 96 well microplate format assay, COS-7 cells expressing the receptor of interest were plated at a density of 70,000 cells per well and allowed to incubate for 24 hours. The cells were then labeled with 0.5 μCi [^3H]myo-inositol overnight at 37° C., 5% CO2. Immediately before the assay, the medium was removed and replaced with 180 μL of Phosphate-Buffered Saline (PBS) containing 10 mM LiCl. The plates were then incubated for 20 min at 37° C., 5% CO2. Following the incubation, the cells were challenged with agonist (20 μl/well; 10× concentration) for 30 min at 37° C. The challenge was terminated by the addition of 100 μL of 5% v/v trichloroacetic acid, followed by incubation at 4° C. for greater than 30 minutes. Total IPs were isolated from the lysate by ion exchange chromatography. Briefly, the lysed contents of the wells were transferred to a Multiscreen HV filter plate (Millipore) containing Dowex AG1-X8 (200–400 mesh, formate form). The filter plates were prepared adding 100 μL of Dowex AG1-X8 suspension (50% v/v, water: resin) to each well. The filter plates were placed on a vacuum manifold to wash or elute the resin bed. Each well was first washed 2 times with 200 μl of 5 mM myo-inositol. Total [^3H]inositol phosphates were eluted with 75 μl of 1.2M ammonium formate/0.1M formic acid solution into 96-well plates. 200 μL of scintillation cocktail was added to each well, and the radioactivity was determined by liquid scintillation counting.
In test [7] the target is T1, SNORF72. As to the kind of experiment: Intracellular Ca2+ release (FLIPR) in SNORF72-transfected COS-7 cells. It counts as cell-based. Conditions: SNORF72-transfected COS-7 cells, peptides at 300 nM (FIG. 8).
The test system of a further test is rat uterus membranes. Conditions: binding site in rat uterus; cited from earlier work.
Test [8] has as its target T2, SNORF62. As to the kind of experiment: Displacement of [125I]rat NMU-23 binding in SNORF62-transfected COS-7 membranes. On the set-up: The SNORF62 cDNA codes for a protein of 426 amino acids; expressed in transfected cells; host or cells: COS-7 (transient, DEAE-dextran). The following applies: SNORF62 membranes, displacement of [125I]rat NMU-23; read-out: average pKi (converted). How it is done: as §3, §4, §5

Test [9] has as its system isolated rat inner adrenocortical cells. Conditions: absence of medullary cells; cited from earlier work.

Where “and” joins values, the source holds several entries; their conditions need not be identical. Identical values can stand only once. No end group written: not given here.

T1 sequence (Q9GZQ4 whole entry A395T): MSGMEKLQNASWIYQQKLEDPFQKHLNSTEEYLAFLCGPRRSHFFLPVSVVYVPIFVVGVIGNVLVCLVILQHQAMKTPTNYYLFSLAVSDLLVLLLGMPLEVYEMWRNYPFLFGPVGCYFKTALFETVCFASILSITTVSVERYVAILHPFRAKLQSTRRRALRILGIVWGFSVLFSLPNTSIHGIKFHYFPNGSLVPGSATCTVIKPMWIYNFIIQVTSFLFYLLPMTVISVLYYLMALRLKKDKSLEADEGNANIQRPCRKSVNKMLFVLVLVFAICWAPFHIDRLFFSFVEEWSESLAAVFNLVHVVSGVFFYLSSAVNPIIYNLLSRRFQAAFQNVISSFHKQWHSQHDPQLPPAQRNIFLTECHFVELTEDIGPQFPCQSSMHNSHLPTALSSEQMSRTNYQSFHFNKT
T3 sequence (Q9ESQ4 whole entry): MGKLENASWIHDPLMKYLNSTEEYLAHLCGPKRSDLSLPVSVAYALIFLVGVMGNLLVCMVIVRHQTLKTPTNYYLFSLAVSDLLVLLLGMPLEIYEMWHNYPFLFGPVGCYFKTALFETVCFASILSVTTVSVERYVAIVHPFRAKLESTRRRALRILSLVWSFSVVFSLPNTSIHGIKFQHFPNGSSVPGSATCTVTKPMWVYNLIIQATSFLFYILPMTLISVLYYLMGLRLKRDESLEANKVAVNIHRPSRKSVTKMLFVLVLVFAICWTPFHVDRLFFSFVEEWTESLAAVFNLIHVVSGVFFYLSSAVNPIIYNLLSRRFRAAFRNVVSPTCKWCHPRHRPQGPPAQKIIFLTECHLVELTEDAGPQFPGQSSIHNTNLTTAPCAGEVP

Turning to “[^125I]rat NMU-23: radioiodinated rat NMU-23 radioligand (NEN, specific activity 2200 Ci/mmole) (YKVNEYQGPVAPSGGFFLFRPRN-NH2; ends and bridges not checked; also: radioiodinated (125I), position not given here)”, the Bmax with SNORF72 [1] was 8.0 pmol/mg protein and 8.2 pmol/mg protein; in the test with SNORF62 [2], 16.5 pmol/mg protein and 9.9 pmol/mg protein.
As for “YKVNEYQGPVAPSGGFFLFRPRN-NH2 [rat NMU-23, YKVNEYQGPVAPSGGFFLFRPRN—NH2]”, the EC50 in test [3] was 0.2 nM; on SNORF62 [4] (stimulation of Ca2+ release, SNORF62-transfected COS-7 cells, n = 2-7 (Table 1A)), 2.1 ± 0.5 nM. For the same substance, the “increases in intracellular Ca2+” value on rat SNORF72 is reported as “robust increases”. On SNORF62 [4] (functional assay, data not shown), the “maximum response / agonist efficacy at SNORF62” value is on record as “full agonists”. In addition, the Ki on SNORF72 [5] was 1 nM; on SNORF62 [8], 0.398 nM. At SNORF62 [6], the “agonist efficacy in IP release assay” value is reported as “full agonists”. Also, at SNORF72 [7], the “stimulation of intracellular Ca2+ release” value is “stimulated”. Further, in the test on rat uterus membranes, the IC50 was 1 nM. The basal corticosterone secretion result in [9] is on record as “directly decreased”.

By IC50 is commonly meant the point on the concentration scale where inhibition reaches its midpoint.

(Values after patent publication US7029857B1, “Processes for obtaining compounds employing SNORF72 receptors” (H. Lundbeck A/S, priority 1999, dated 2006).)
